Data as given in patent US9657009B2, “Heteroaryl substituted pyridyl compounds useful as kinase modulators” (BRISTOL-MYERS SQUIBB COMPANY, priority 2012, dated 2017).
Like-named read-outs stand apart in the source and are kept apart here.

Target: IRAK4 (Homo sapiens (Human), UniProt Q9NWZ3)
Experiment: IRAK4 Inhibition Assay
Format: biochemical
Protocol: IRAK4 Inhibition Assay The assays were performed in U-bottom 384-well plates. […] The reaction was initiated by the combination of IRAK4 with substrates and test compounds. The reaction mixture was incubated at room temperature for 60 min. and terminated by adding 45 μL of 35 mM EDTA to each sample.

[1] = ATP 500 μM, IRAK4 0.6 nM, 60 min at room temperature, read-out: IRAK4 IC50

Chain of IRAK4 (Q9NWZ3 whole entry, species assumed): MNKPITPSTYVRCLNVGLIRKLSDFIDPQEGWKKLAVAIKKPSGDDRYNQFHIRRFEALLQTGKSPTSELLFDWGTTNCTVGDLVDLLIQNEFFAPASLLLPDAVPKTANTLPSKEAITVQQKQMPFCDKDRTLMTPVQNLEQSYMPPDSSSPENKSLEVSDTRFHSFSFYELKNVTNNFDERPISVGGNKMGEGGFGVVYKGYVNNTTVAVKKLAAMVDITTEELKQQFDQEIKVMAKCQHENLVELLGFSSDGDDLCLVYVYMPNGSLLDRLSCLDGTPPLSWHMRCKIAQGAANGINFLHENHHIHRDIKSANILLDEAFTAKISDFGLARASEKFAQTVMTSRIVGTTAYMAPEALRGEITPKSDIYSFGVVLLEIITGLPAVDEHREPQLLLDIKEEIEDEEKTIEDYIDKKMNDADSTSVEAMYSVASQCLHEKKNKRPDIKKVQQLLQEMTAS

In the case of CC(C)Nc1cc(Nc2ccc(C#N)c(N3CCC(O)C3)n2)ncc1C(=O)NC[C@@H](F)C(C)(C)O (stereo in doubt) [Example 27, 6-((5-cyano-6-((3S)-3-hydroxy-1-pyrrolidinyl)-2-pyridinyl)amino)-N-((2R)-2-fluoro-3-hydroxy-3-methylbutyl)-4-(isopropylamino)nicotinamide], the IC50 [1] is reported as 6 nM.
CNC(=O)c1cnc(Nc2ccc(C#N)cn2)cc1N[C@@H](c1ccccc1)[C@H](O)CO [Example 1, 6-((5-cyano-2-pyridinyl)amino)-4-(((1S,2S)-2,3-dihydroxy-1-phenylpropyl)amino)-N-methylnicotinamide] showed an IC50 [1] of 53.9 nM.
In the case of CC(C)Nc1cc(Nc2ccc(C#N)cn2)ncc1C(=O)NC[C@@H](F)C(C)(C)O [Example 2, 6-((5-cyano-2-pyridinyl)amino)-N-((2R)-2-fluoro-3-hydroxy-3-methylbutyl)-4-(isopropylamino)nicotinamide], the IC50 [1] is reported as 2 nM.
CC(C)(O)[C@H](F)CNC(=O)c1cnc(Nc2ccc(C#N)cn2)cc1NCC(F)(F)F [Example 3, 6-((5-cyano-2-pyridinyl)amino)-N-((2R)-2-fluoro-3-hydroxy-3-methylbutyl)-4-((2,2,2-trifluoroethyl)amino)nicotinamide] showed an IC50 [1] of 14.8 nM.
CCNc1cc(Nc2ccc(C#N)cn2)ncc1C(=O)NC[C@@H](F)C(C)(C)O [Example 4, 6-((5-cyano-2-pyridinyl)amino)-4-(ethylamino)-N-((2R)-2-fluoro-3-hydroxy-3-methylbutyl)nicotinamide] was tested, and the IC50 [1] was 10.3 nM.
In the case of CC(C)Nc1cc(Nc2ccc(C#N)cn2)ncc1C(=O)N[C@H]1CC[C@H](C(=O)NC2CC2)CC1 [Example 6, 6-((5-cyanopyridin-2-yl)amino)-N-((1R,4R)-4-(cyclopropylcarbamoyl)cyclohexyl)-4-(isopropylamino)nicotinamide], the IC50 [1] is reported as 5.5 nM.
With CC(C)Nc1cc(Nc2ccc(C#N)cn2)ncc1C(=O)N[C@H]1CC[C@H](C(=O)N[C@H]2C[C@H]2F)CC1 [Example 7, 6-((5-cyano-2-pyridinyl)amino)-N-(trans-4-(((1S,2R)-2-fluorocyclopropyl)carbamoyl)cyclohexyl)-4-(isopropylamino)nicotinamide] the IC50 [1] was 10.4 nM.
For CC(=O)N1CCC(NC(=O)c2cnc(Nc3ccc(C#N)cn3)cc2NC(C)C)CC1 [Example 8, N-(1-acetyl-4-piperidinyl)-6-((5-cyano-2-pyridinyl)amino)-4-(isopropylamino)nicotinamide], the IC50 [1] was 30.7 nM.
CC(=O)N[C@H]1CC[C@H](NC(=O)c2cnc(Nc3ccc(C#N)cn3)cc2NC(C)C)CC1 [Example 9, N-(trans-4-acetamidocyclohexyl)-6-((5-cyano-2-pyridinyl)amino)-4-(isopropylamino)nicotinamide] was tested, and the IC50 [1] was 7.4 nM.
Work on CC(=O)N[C@H]1CC[C@H](NC(=O)c2cnc(Nc3ccc(C#N)cn3)cc2NC2CCOCC2F)CC1 (stereo partly drawn) [Example 11, N-((1R,4R)-4-acetamidocyclohexyl)-6-((5-cyanopyridin-2-yl)amino)-4-(((3S,4R)-3-fluorotetrahydro-2H-pyran-4-yl)amino)nicotinamide] yielded an IC50 [1] of 11.1 nM.
Molecule CC(C)Nc1cc(Nc2ncc(C#N)cc2Cl)ncc1C(=O)NC[C@@H](F)C(C)(C)O [Example 12, 6-((3-chloro-5-cyano-2-pyridinyl)amino)-N-((2R)-2-fluoro-3-hydroxy-3-methylbutyl)-4-(isopropylamino)nicotinamide] has an IC50 [1] of 1.9 nM.
CC(=O)N[C@H]1CC[C@H](NC(=O)c2cnc(Nc3ncc(C#N)cc3Cl)cc2NC(C)C)CC1 [Example 15, N-((1r,4r)-4-acetamidocyclohexyl)-6-((3-chloro-5-cyanopyridin-2-yl)amino)-4-(isopropylamino)nicotinamide] gave an IC50 [1] of 5.2 nM.
CNC(=O)[C@H]1CC[C@H](NC(=O)c2cnc(Nc3ncc(C#N)cc3Cl)cc2NC(C)C)CC1 [Example 16, 6-((3-chloro-5-cyanopyridin-2-yl)amino)-4-(isopropylamino)-N-((1r,4r)-4-(methylcarbamoyl)cyclohexyl)nicotinamide] showed an IC50 [1] of 6.3 nM.
Work on CC(C)Nc1cc(Nc2ncc(C#N)cc2F)ncc1C(=O)NC[C@@H](F)C(C)(C)O [Example 17, 6-((5-cyano-3-fluoro-2-pyridinyl)amino)-N-((2R)-2-fluoro-3-hydroxy-3-methylbutyl)-4-(isopropylamino)nicotinamide] yielded an IC50 [1] of 9.6 nM.
In the case of CNC(=O)[C@H]1CC[C@H](NC(=O)c2cnc(Nc3ncc(C#N)cc3F)cc2NC(C)C)CC1 [Example 18, 6-((5-cyano-3-fluoropyridin-2-yl)amino)-4-(isopropylamino)-N-((1r,4r)-4-(methylcarbamoyl)cyclohexyl)nicotinamide], the IC50 [1] is reported as 3.4 nM.
Molecule CC(=O)N[C@H]1CC[C@H](NC(=O)c2cnc(Nc3ncc(C#N)cc3F)cc2NC(C)C)CC1 [Example 19, N-(trans-4-acetamidocyclohexyl)-6-((5-cyano-3-fluoro-2-pyridinyl)amino)-4-(isopropylamino)nicotinamide] has an IC50 [1] of 4.8 nM.
CC(C)Nc1cc(Nc2ccncn2)ncc1C(=O)NC[C@@H](F)C(C)(C)O [Example 20, N-((2R)-2-fluoro-3-hydroxy-3-methylbutyl)-4-(isopropylamino)-6-(4-pyrimidinylamino)nicotinamide] was tested, and the IC50 [1] was 11.7 nM.
CC(C)(O)[C@H](F)CNC(=O)c1cnc(Nc2ccncn2)cc1NC1CC1 [Example 21, 4-(cyclopropylamino)-N-((2R)-2-fluoro-3-hydroxy-3-methylbutyl)-6-(4-pyrimidinylamino)nicotinamide] showed an IC50 [1] of 13.3 nM.
For CC(C)Nc1cc(Nc2ncc(C#N)cn2)ncc1C(=O)NC[C@@H](F)C(C)(C)O [Example 22, 6-((5-cyano-2-pyrimidinyl)amino)-N-((2R)-2-fluoro-3-hydroxy-3-methylbutyl)-4-(isopropylamino)nicotinamide], the IC50 [1] was 5.3 nM.
With CC(C)(O)[C@H](F)CNC(=O)c1cnc(Nc2nc(-c3cccnc3)cs2)cc1NC1CC1 [Example 23, 4-(cyclopropylamino)-N-((2R)-2-fluoro-3-hydroxy-3-methylbutyl)-6-((4-(3-pyridinyl)-1,3-thiazol-2-yl)amino)nicotinamide] the IC50 was 23.3 nM.
CC(C)Nc1cc(Nc2ccnc(NC3CC3)n2)ncc1C(=O)NC[C@@H](F)C(C)(C)O [Example 24, 6-((2-(cyclopropylamino)-4-pyrimidinyl)amino)-N-((2R)-2-fluoro-3-hydroxy-3-methylbutyl)-4-(isopropylamino)nicotinamide] gave an IC50 [1] of 11 nM.
CC(C)Nc1cc(Nc2ccnc(NC3CCCOC3)n2)ncc1C(=O)NC[C@@H](F)C(C)(C)O (stereo partly drawn) [Example 25, N-((2R)-2-fluoro-3-hydroxy-3-methylbutyl)-4-(isopropylamino)-6-((2-(tetrahydro-2H-pyran-3-ylamino)-4-pyrimidinyl)amino)nicotinamide] was tested, and the IC50 [1] was 9.9 nM.
For CC(C)Nc1cc(Nc2ccnc(N3CCC(F)C3)n2)ncc1C(=O)NC[C@@H](F)C(C)(C)O (stereo partly drawn) [Example 26, N-((2R)-2-fluoro-3-hydroxy-3-methylbutyl)-6-((2-(3-fluoro-1-pyrrolidinyl)-4-pyrimidinyl)amino)-4-(isopropylamino)nicotinamide], the IC50 [1] was 4.8 nM.
In the case of CC(=O)N[C@H](C)CCNC(=O)c1cnc(Nc2ncc(C#N)cc2Cl)cc1NC(C)C [Example 28, (R)—N-(3-acetamidobutyl)-6-((3-chloro-5-cyanopyridin-2-yl)amino)-4-(isopropylamino)nicotinamide], the IC50 [1] is reported as 1.5 nM.
CC(C)NC(=O)N[C@H](C)CCNC(=O)c1cnc(Nc2ncc(C#N)cc2F)cc1NC(C)C [Example 29, (R)-6-((5-cyano-3-fluoropyridin-2-yl)amino)-4-(isopropylamino)-N-(3-(3-isopropylureido)butyl)nicotinamide] was tested, and the IC50 [1] was 1.2 nM.
For CC(C)Nc1cc(Nc2ncc(C#N)cc2F)ncc1C(=O)N[C@H]1CC[C@H](S(C)(=O)=O)CC1 [Example 33, 6-((5-cyano-3-fluoropyridin-2-yl)amino)-4-(isopropylamino)-N-((1R,4R)-4-(methylsulfonyl)cyclohexyl)nicotinamide], the IC50 [1] was 10 nM.
With CC(=O)Nc1nc(Nc2cc(NC(C)C)c(C(=O)NC[C@@H](F)C(C)(C)O)cn2)ncc1C#N [Example 34] the IC50 [1] was 6.1 nM.
CC(C)(O)[C@H](F)CNC(=O)c1cnc(Nc2ncc(C(N)=O)cc2Cl)cc1NC1CCC(F)C1 (stereo partly shown) [Example 38] was tested, and the IC50 [1] was 4.5 nM.
C[C@@H](CF)Nc1cc(Nc2ncc(C#N)cc2Cl)ncc1C(=O)NC[C@@H](F)C(C)(C)O [Example 39, 6-((3-chloro-5-cyanopyridin-2-yl)amino)-N—((R)-2-fluoro-3-hydroxy-3-methylbutyl)-4-(((S)-1-fluoropropan-2-yl)amino)nicotinamide] was tested, and the IC50 [1] was 3.8 nM.
With CC(C)Nc1cc(Nc2ncc(C#N)c(NC(C)C)n2)ncc1C(=O)NC[C@@H](F)C(C)(C)O [Example 40] the IC50 [1] was 6.4 nM.
CC(C)(O)[C@H](F)CNC(=O)c1cnc(Nc2nc(OC3CCNCC3)ncc2Cl)cc1NC1CC1 [Example 42] showed an IC50 [1] of 14.7 nM.
In the case of CC(C)(O)C(F)(F)CNC(=O)c1cnc(Nc2ncc(C#N)cc2Cl)cc1NC1CC1 [Example 43, 6-((3-chloro-5-cyanopyridin-2-yl)amino)-4-(cyclopropylamino)-N-(2,2-difluoro-3-hydroxy-3-methylbutyl)nicotinamide], the IC50 [1] is reported as 10.7 nM.
CC(C)Nc1cc(Nc2ccc(=O)[nH]n2)ncc1C(=O)NC[C@@H](F)C(C)(C)O [Example 45] gave an IC50 [1] of 7.5 nM.
Work on CC(C)(F)CNc1cc(Nc2ncc(C#N)cc2Cl)ncc1C(=O)NC[C@@H](F)C(C)(C)O [Example 46] yielded an IC50 [1] of 16.9 nM.
Molecule CC(C)(O)[C@H](F)CNC(=O)c1cnc(Nc2ncc(C#N)cc2F)cc1NC1CC1 [Example 47] has an IC50 [1] of 1.9 nM.
CC(C)(O)[C@H](F)CNC(=O)c1cnc(Nc2ncc(C#N)cc2F)cc1NC1CCOCC1 [Example 49] showed an IC50 [1] of 3.1 nM.
C[C@@H](CO)Nc1cc(Nc2ncc(C#N)cc2Cl)ncc1C(=O)NC[C@@H](F)C(C)(C)O [Example 50] was tested, and the IC50 [1] was 9.4 nM.
For CCNc1cc(Nc2ncc(C#N)cc2Cl)ncc1C(=O)NC[C@@H](F)C(C)(C)O [Example 51], the IC50 [1] was 4.6 nM.
In the case of CC(C)Nc1cc(Nc2ncncc2F)ncc1C(=O)NC[C@@H](F)C(C)(C)O [Example 53], the IC50 [1] is reported as 8.1 nM.
CC(C)(O)[C@H](F)CNC(=O)c1cnc(Nc2ncc(C#N)cn2)cc1NC1CCC(F)C1 (stereo partly shown) [Example 56] was tested, and the IC50 [1] was 5 nM.
